Key:
TEAD2 = TEAD2 (Homo sapiens, UniProt Q15562); assay: TEAD lipid assay (Lipid FP, Bodipy-C16 probe displacement); assay type: binding; conditions: fluorescence polarization, His-tagged TEAD, 60 minutes incubation
Method: (§1) A TEAD lipid assay was done according to the following method. His-tagged TEAD proteins were pre-incubated with a Bodipy-C16 FP probe (Life Technologies Cat #D3821) for 30 minutes at room temperature to pre-form TEAD-probe complex. […] Duplicate 10 point dose response curves were generated for each test compound. The potency of compounds as TEAD lipid pocket binders was determined by IC50 value generated using a non-linear 4 parameter curve fit.

TEAD3 = TEAD3 (Homo sapiens, UniProt Q99594); assay: as above; assay type: binding; conditions: fluorescence polarization, His-tagged TEAD, 60 minutes incubation
Method: as §1

TEAD2, sequence (Q15562 whole entry, species assumed): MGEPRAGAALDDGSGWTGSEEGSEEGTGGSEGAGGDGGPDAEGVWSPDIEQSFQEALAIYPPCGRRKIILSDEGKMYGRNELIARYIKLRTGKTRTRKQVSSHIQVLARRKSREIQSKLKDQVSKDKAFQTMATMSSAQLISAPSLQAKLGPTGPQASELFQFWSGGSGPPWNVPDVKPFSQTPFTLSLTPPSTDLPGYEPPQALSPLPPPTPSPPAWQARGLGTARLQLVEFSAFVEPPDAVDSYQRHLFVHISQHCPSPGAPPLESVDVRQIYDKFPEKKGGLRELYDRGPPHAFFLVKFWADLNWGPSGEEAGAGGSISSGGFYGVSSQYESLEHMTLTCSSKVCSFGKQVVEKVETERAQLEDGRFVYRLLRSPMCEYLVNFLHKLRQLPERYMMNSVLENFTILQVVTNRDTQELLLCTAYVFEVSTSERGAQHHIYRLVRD
TEAD3, sequence (Q99594 whole entry, species assumed): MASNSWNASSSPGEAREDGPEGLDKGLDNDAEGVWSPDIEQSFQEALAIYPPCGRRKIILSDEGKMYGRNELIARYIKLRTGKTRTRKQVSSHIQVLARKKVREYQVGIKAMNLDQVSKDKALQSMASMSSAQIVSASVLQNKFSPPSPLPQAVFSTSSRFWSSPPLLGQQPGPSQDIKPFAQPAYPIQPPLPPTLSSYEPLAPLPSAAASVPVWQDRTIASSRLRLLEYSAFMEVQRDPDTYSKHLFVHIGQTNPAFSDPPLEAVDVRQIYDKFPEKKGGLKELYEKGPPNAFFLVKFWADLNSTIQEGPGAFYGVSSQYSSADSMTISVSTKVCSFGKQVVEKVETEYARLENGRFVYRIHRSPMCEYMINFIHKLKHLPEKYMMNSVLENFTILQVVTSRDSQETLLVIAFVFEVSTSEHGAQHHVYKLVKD

Row | SMILES | IC50 (TEAD2) | IC50 (TEAD3)
1 | COc1ccc(NS(C)(=O)=O)cc1C1CC1C1CCCCC1 (single isomer, unassigned) [Compound 1B, N-(3-(2-Cyclohexylcyclopropyl)-4-methoxyphenyl)methanesulfonamide] | 1 µM | 1.8 µM
2 | COc1ccc(NS(C)(=O)=O)cc1/C=C/C1CCC(C)CC1 (single isomer, unassigned) [Compound 6A, (E)-N-(4-Methoxy-3-(2-(4-methylcyclohexyl)vinyl)phenyl) methanesulfonamide] | 0.96 µM | 1.7 µM
3 | COc1ccc(NS(C)(=O)=O)cc1[C@H]1C[C@H](c2ccc(Cl)cc2)C1 (single isomer, unassigned) [Compound 7A] | 0.91 µM | 1.7 µM
4 | COc1ccc(C(=O)NC(C)C)cc1[C@H]1C[C@H](c2ccc(Cl)cc2)C1 (single isomer, unassigned) [Compound 9A] | 0.78 µM | 1.6 µM
5 | COc1ncc(C(=O)NC(C)CCO)cc1/C=C/c1ccc(Cl)cc1 (single isomer, unassigned) [Compound 19, 5-[(E)-2-(4-chlorophenyl)vinyl]-N-(3-hydroxy-1-methyl-propyl)-6-methoxy-pyridine-3-carboxamide] | 1.9 µM | 1.6 µM
6 | COc1ccc(C(=O)NC(C)CCO)cc1/C=C/c1ccc(Cl)cc1 (single isomer, unassigned) [Compound 51, 3-[(E)-2-(4-chlorophenyl)vinyl]-N-(3-hydroxy-1-methyl-propyl)-4-methoxy-benzamide] | 0.96 µM | 2 µM
7 | COc1ccc(NS(C)(=O)=O)cc1/C=C/C1CCC(F)(F)CC1 [Compound 2, N-[3-[(E)-2-(4,4-difluorocyclohexyl)vinyl]-4-methoxy-phenyl]methanesulfonamide] | 1 µM | 1.5 µM
8 | COc1ccc(NS(C)(=O)=O)cc1/C=C/C1CCCC1 [Compound 3, N-[3-[(E)-2-cyclopentylvinyl]-4-methoxy-phenyl]methanesulfonamide] | 0.58 µM | 1.8 µM
9 | COc1ccc(NS(C)(=O)=O)cc1/C=C/CC1CCCCC1 [Compound 4, N-[3-[(E)-3-cyclohexylprop-1-enyl]-4-methoxy-phenyl]methanesulfonamide] | 0.96 µM | 1.3 µM
10 | COc1ccc(NS(C)(=O)=O)cc1/C=C/C1CCC(C)(C)CC1 [Compound 5, N-[3-[(E)-2-(4,4-dimethylcyclohexyl)vinyl]-4-methoxy-phenyl]methanesulfonamide] | 0.6 µM | 0.77 µM
11 | COc1cc(F)c(NS(=O)(=O)C2CC2)cc1/C=C/c1ccc(Cl)cc1 [Compound 10, N-[5-[(E)-2-(4-chlorophenyl)vinyl]-2-fluoro-4-methoxy-phenyl]cyclopropanesulfonamide] | 1.1 µM | 1.9 µM
12 | COc1ncc(NS(C)(=O)=O)cc1/C=C/C1CCC(F)(F)CC1 [Compound 14, N-[5-[(E)-2-(4,4-difluorocyclohexyl)vinyl]-6-methoxy-3-pyridyl]methanesulfonamide] | 0.38 µM | 0.43 µM
13 | COc1ncc(NS(C)(=O)=O)cc1/C=C/[C@H]1CC[C@H](C(F)(F)F)CC1 [Compound 16, N-[6-methoxy-5-[(E)-2-[4-(trifluoromethyl)cyclohexyl]vinyl]-3-pyridyl]methanesulfonamide] | 0.69 µM | 1.2 µM
14 | COc1ncc(NS(C)(=O)=O)cc1/C=C/C1CC2(CC2)C1 [Compound 17, N-[6-methoxy-5-[(E)-2-spiro[2.3]hexan-5-ylvinyl]-3-pyridyl]methanesulfonamide] | 0.81 µM | 1.8 µM
15 | CCOc1ncc(NS(C)(=O)=O)cc1/C=C/C1CCC(F)(F)CC1 [Compound 18, N-[5-[(E)-2-(4,4-difluorocyclohexyl)vinyl]-6-ethoxy-3-pyridyl]methanesulfonamide] | 1.9 µM | 1.2 µM
16 | COc1cnc(NS(C)(=O)=O)cc1/C=C/C1(F)CCC(C(F)(F)F)CC1 (centres unmarked) [Compound 21, N-[4-[(E)-2-[1-fluoro-4-(trifluoromethyl)cyclohexyl]vinyl]-5-methoxy-2-pyridyl]methanesulfonamide] | 0.86 µM | 0.63 µM
17 | Cc1cn(Cc2ccc(Cl)cc2)c2cc(NS(=O)(=O)C3CC3)ccc12 [Compound 23, N-[1-[(4-chlorophenyl)methyl]-3-methyl-indol-6-yl]cyclopropanesulfonamide] | 1.2 µM | 0.83 µM
18 | COc1ccc(NS(=O)(=O)C2CC2)cc1-c1ccc(C(C)C)cc1 [Compound 25, N-[3-(4-isopropylphenyl)-4-methoxy-phenyl]cyclopropanesulfonamide] | 0.38 µM | 1.2 µM
19 | COc1ccc(C(=O)NC(C)C)cc1-c1ccc(C2CC2)cc1 [Compound 26, 3-(4-cyclopropylphenyl)-N-isopropyl-4-methoxy-benzamide] | 2 µM | 1.7 µM
20 | COc1ccc(NS(C)(=O)=O)cc1/C=C/C1CCCCC1 [Compound 27, N-[3-[(E)-2-cyclohexylvinyl]-4-methoxy-phenyl]methanesulfonamide] | 1 µM | 1.2 µM
21 | COc1ccc(NS(=O)(=O)C2CC2)cc1/C=C/C1CCCCC1 [Compound 28, N-[3-[(E)-2-cyclohexylvinyl]-4-methoxy-phenyl]cyclopropanesulfonamide] | 0.89 µM | 1 µM
22 | COc1ccc(C(=O)NC(C)C)cc1/C=C/C1CCCCC1 [Compound 29] | 1 µM | 1.1 µM
23 | COc1ccc(C(=O)NC(C)C)cc1/C=C/Cc1ccccc1 [Compound 30, N-isopropyl-4-methoxy-3-[(E)-3-phenylprop-1-enyl]benzamide] | 0.72 µM | 0.62 µM
24 | COc1ccc(C(N)=O)cc1/C=C/C1CCCCC1 [Compound 31, 3-[(E)-2-cyclohexylvinyl]-4-methoxy-benzamide] | 0.78 µM | 0.97 µM
25 | COc1ccc(NS(=O)(=O)C2CC2)cc1/C=C/Cc1ccccc1 [Compound 33, N-[4-methoxy-3-[(E)-3-phenylprop-1-enyl]phenyl]cyclopropanesulfonamide] | 0.84 µM | 1.2 µM
26 | COc1ncc(NS(C)(=O)=O)cc1/C=C/C1CC(C)(C)C1 [Compound 36, N-[5-[(E)-2-(3,3-dimethylcyclobutyl)vinyl]-6-methoxy-3-pyridyl]methanesulfonamide] | 0.95 µM | 1.4 µM

The remaining compounds from weak to strong by IC50 (TEAD2), led by results:

Row | IC50 (TEAD2) | IC50 (TEAD3) | SMILES
27 | 2 µM | 0.76 µM | COc1cnc(NS(C)(=O)=O)cc1/C=C/C1(F)CCC(F)(F)CC1 [Compound 20, N-[5-methoxy-4-[(E)-2-(1,4,4-trifluorocyclohexyl)vinyl]-2-pyridyl]methanesulfonamide]
28 | 1.9 µM | 1.4 µM | CC[C@H](CO)NC(=O)c1cnc(OC)c(/C=C/C2CCC(F)(F)CC2)c1 (racemic) [Compound 35, 6-methoxy-5-[rac-(E)-2-(4,4-difluorocyclohexyl)vinyl]-N-[rac-(1R)-1-(hydroxymethyl)propyl]pyridine-3-carboxamide]
29 | 1.8 µM | 1.1 µM | CC[C@H](CO)NC(=O)c1cc(/C=C/C2CCC(F)(F)CC2)c(OC)cn1 (racemic) [Compound 41, 5-methoxy-4-[rac-(E)-2-(4,4-difluorocyclohexyl)vinyl]-N-[rac-(1R)-1-(hydroxymethyl)propyl]pyridine-2-carboxamide]
30 | 1.2 µM | 2 µM | COc1ncc(NS(C)(=O)=O)cc1/C=C/CC(C)C [Compound 15, N-[6-methoxy-5-[(E)-4-methylpent-1-enyl]-3-pyridyl]methanesulfonamide]
31 | 1.1 µM | 2 µM | COc1nc(F)c(NS(C)(=O)=O)cc1/C=C/C1CCCCC1 [Compound 38, N-[5-[(E)-2-cyclohexylvinyl]-2-fluoro-6-methoxy-3-pyridyl]methanesulfonamide]
32 | 0.96 µM | 1.2 µM | C=CS(=O)(=O)Nc1ccc(OC)c(/C=C/c2ccc(Cl)cc2)c1 [Compound 34, N-[3-[(E)-2-(4-chlorophenyl)vinyl]-4-methoxy-phenyl]ethenesulfonamide]
33 | 0.93 µM | 1.3 µM | Cc1cn(Cc2ccc(Cl)cc2)c2cc(NS(C)(=O)=O)ccc12 [Compound 22, N-[1-[(4-chlorophenyl)methyl]-3-methyl-indol-6-yl]methanesulfonamide]
34 | 0.75 µM | 1.3 µM | COc1ncc(NS(C)(=O)=O)cc1/C=C/C1CC(C(F)(F)F)C1 (racemic) [Compound 37, N-[6-methoxy-5-[rac-(E)-2-[3-(trifluoromethyl)cyclobutyl]vinyl]-3-pyridyl]methanesulfonamide]
35 | 0.74 µM | 1.4 µM | COc1ccc(NS(C)(=O)=O)cc1[C@H]1C[C@H](c2cccc(F)c2)C1 (single isomer, unassigned) [Compound 8A]
36 | 0.73 µM | 1.8 µM | COc1ncc(NS(C)(=O)=O)cc1C1CC(c2ccc(Cl)cc2)C1 (centres unmarked) [Compound 13, N-[5-[3-(4-chlorophenyl)cyclobutyl]-6-methoxy-3-pyridyl]methanesulfonamide]
37 | 0.61 µM | 1.4 µM | COc1ccc(C(N)=O)cc1/C=C/Cc1ccccc1 [Compound 32, 4-methoxy-3-[(E)-3-phenylprop-1-enyl]benzamide]
38 | 0.59 µM | 0.86 µM | COc1cc(F)c(NS(C)(=O)=O)cc1-c1ccc(C(C)C)cc1 [Compound 12, N-[2-fluoro-5-(4-isopropylphenyl)-4-methoxy-phenyl]methanesulfonamide]
39 | 0.56 µM | 0.63 µM | COc1cc(F)c(NS(=O)(=O)C2CC2)cc1-c1ccc(C(C)C)cc1 [Compound 11, N-[2-fluoro-5-(4-isopropylphenyl)-4-methoxy-phenyl]cyclopropanesulfonamide]
40 | 0.36 µM | 0.78 µM | Cn1cc(Cc2ccc(Cl)cc2)c2cc(NS(C)(=O)=O)ccc21 [Compound 24, N-[3-[(4-chlorophenyl)methyl]-1-methyl-indol-5-yl]methanesulfonamide]
